Results reported in article PMC8802628, “Selective activation of PFKL suppresses the phagocytic oxidative burst” (Cell, 2021).
Where a chain is given by its changes, count along the chain named.

What was measured:
[1] = test system: human peripheral blood neutrophils; experiment: NETosis assay in human neutrophils (SYTOX Green, DNA area); assay type: cell-based; conditions: PMA; SAR analogs compared to LDC7559
Procedure: Freshly purified neutrophils were plated at 6 × 10^3 cells/well in glass bottom 96-well plates (SensoPlate, Greiner Bio-One 82050-792) in the RPMI medium described above. Cells were pretreated with DMSO vehicle, 0.5 μM NA-11, 100 μM apocynin, 0.5 μM and 5 μM PALP, or 0.5 μM and 5 μM LDC7559 for 30 min, and then stimulated with 50 nM PMA, 1 μM f-MLP, 5 μg/mL cholesterol crystals, 10 μg/mL LPS, 25 μM nigericin, or 25 μM calcymicin (A23187) for 3 h (except in Figures S1A, 6A and S7C, where cells were stimulated for 4 h). Cells were fixed and permeabilized in 2.5% paraformaldehyde (PFA) and 0.02% Triton X-100 in PBS for 30 min. For quantification of NETosis, cells were stained with 150 nM SYTOX Green and imaged in a KEYENCE Fluorescence Microscope (KEYENCE, ZB-X800E) at 10 x magnification. For immunolabeling, fixed cells were blocked with 2% BSA for 1 h, and then stained with anti-CitH3 and anti-MPO antibodies at a dilution of 1/200 in 1% BSA in PBS. Images were taken at 60 x magnification using an ImageXpress Micro Confocal high-content imaging system (Molecular Devices).
Semi-automated analysis of both phase and fluorescence images of SYTOX Green-stained neutrophils used a specialized MATLAB algorithm. Total cells were counted by scoring phase standard deviation and radial symmetry. NETosis was classified in cells by measuring the DNA area in the fluorescence image and comparing with a select internal training set for each experiment. Unstimulated cells and PMA-stimulated, […] cells served as negative controls. PMA-stimulated cells served as a positive control. NET-forming cells are presented as a percentage of total cells.

[2] = biological target: T1, PFKL (Homo sapiens, UniProt P17858); experiment: Recombinant PFKL activity assay (relief of ATP inhibition); assay type: biochemical; conditions: at 3.1 mM ATP; F6P approximately twice the Km,F6P
T1 construct: made in house; host or cells: Sf9 insect cells (baculovirus, Bac-to-Bac)
T1 sequence (P17858 1-780): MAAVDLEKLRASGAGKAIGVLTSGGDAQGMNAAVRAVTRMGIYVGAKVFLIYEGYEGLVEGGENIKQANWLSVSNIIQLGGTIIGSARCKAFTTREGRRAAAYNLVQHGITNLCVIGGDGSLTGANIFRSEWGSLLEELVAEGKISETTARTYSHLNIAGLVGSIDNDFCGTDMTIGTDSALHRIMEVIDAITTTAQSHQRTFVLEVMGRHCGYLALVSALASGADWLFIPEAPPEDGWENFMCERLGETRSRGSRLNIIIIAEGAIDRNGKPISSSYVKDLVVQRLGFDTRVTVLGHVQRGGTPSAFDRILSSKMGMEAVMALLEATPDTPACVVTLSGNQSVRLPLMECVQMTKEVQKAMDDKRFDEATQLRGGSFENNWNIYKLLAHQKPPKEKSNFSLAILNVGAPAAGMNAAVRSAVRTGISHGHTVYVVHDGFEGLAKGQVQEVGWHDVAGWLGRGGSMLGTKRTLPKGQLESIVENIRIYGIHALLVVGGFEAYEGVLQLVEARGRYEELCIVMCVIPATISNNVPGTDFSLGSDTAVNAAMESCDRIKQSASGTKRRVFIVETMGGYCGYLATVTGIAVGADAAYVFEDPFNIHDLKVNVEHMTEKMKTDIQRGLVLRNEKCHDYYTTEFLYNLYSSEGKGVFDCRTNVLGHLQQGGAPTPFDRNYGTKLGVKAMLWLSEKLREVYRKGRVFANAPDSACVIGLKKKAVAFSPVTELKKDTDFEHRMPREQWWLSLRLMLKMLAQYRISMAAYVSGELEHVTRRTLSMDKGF
Description: (§1) Recombinant N-terminal His-tagged human PFKL (NP_002617), PFKM (NP_000280), and PFKP (NM_002627.4) were generated as described ([Webb et al., 2015], [2017]). Point mutants of PFK1 were generated using the QuikChange Lightning kit (Aligent).
(§2) His-tagged PFK1 was expressed and purified as described with slight modifications ([Webb et al., 2015], [2017]). Briefly, baculovirus was generated using the Bac-to-Bac Expression system (Invitrogen). PFK1 was expressed in 2-5 × 10^6 sf9 cells at a multiplicity of infection of two for 48 h. Cells were lysed in 20 mM HEPES, pH 7.5, 80 mM potassium phosphate, 1 mM 2-mercapentoethanol, 10% glycerol, 10 mM imidazole, and EDTA-free Protease Inhibitor Cocktail (Abcam) with a Dounce homogenizer. The soluble lysate was incubated with HisPur cobalt resin (ThermoFisher Scientific). The resin was washed with 5 bead volumes lysis buffer, 10 bead volumes lysis buffer containing 2 M NaCl, and 5 further bead volumes lysis buffer. PFK1 was eluted in lysis buffer containing 100 mM imidazole. Fractions containing protein were pooled, passed over a desalting column equilibrated in freezing buffer [20 mM HEPES pH 7.5, 1 mM DTT, 500 μM ammonium sulfate, 5% glycerol, 1 mM ATP, and 100 μM EDTA] and concentrated using an Amicon Ultracel-30K Centrifugal Filter Unit (MilliporeSigma). Protein was quantified using a Bradford Protein Assay kit (ThermoFisher Scientific), and aliquotes frozen in liquid nitrogen for storage at −80°C.
(§3) PFK1 activity was determined using the rate of FBP production via an auxiliary enzyme assay adapted to a 96-well format ([Brüser et al., 2012]; [Webb et al., 2015]). The auxiliary enzymes aldolase, triosephosphate isomerase, and glycerol phosphate dehydrogenase were purchased from MilliporeSigma as ammonium sulfate slurries and desalted using an Amicon Ultracel-10K Centrifugal Filter Unit. For assays containing FBP, the rate of ADP production was determined using the auxiliary enzymes pyruvate kinase (PK) and lactate dehydrogenase (LDH) (MilliporeSigma) in a buffer containing 250 μM phosphoenolpyruvic acid, […] NADH, 50 mM HEPES pH 7.5, 100 mM KCl, 1 mM DTT, and effector concentrations as described in the text. The temperature was equilibrated to 25°C for 5 min before initiating the reaction 10 mM MgCl2. Absorbance at 340 nm was measured using a Varioskan LUX Multimode microplate reader (ThermoFisher). Kinetic parameters were generated by nonlinear regression analysis using Prism (GraphPad Software) and are the mean of a minimum of three measurements from two independent preparations of protein. One unit of activity was defined as the amount of enzyme that catalyzed the formation of 1 μmol of fructose 1,6-bisphosphate per min at 25°C. Assays for PFKM were performed at pH 7.0 due to the pH-dependence of ATP inhibition ([Trivedi and Danforth, 1966]).

[3] = biological target: T2, PFKM+pocket (R315 to lysine) (Homo sapiens, UniProt P08237, R315K); experiment: Recombinant PFKM+pocket activity assay; assay type: biochemical; conditions: at 4 mM ATP
T2 construct: made in house; host or cells: Sf9 insect cells (baculovirus)
T2 sequence (P08237 1-780 R315K): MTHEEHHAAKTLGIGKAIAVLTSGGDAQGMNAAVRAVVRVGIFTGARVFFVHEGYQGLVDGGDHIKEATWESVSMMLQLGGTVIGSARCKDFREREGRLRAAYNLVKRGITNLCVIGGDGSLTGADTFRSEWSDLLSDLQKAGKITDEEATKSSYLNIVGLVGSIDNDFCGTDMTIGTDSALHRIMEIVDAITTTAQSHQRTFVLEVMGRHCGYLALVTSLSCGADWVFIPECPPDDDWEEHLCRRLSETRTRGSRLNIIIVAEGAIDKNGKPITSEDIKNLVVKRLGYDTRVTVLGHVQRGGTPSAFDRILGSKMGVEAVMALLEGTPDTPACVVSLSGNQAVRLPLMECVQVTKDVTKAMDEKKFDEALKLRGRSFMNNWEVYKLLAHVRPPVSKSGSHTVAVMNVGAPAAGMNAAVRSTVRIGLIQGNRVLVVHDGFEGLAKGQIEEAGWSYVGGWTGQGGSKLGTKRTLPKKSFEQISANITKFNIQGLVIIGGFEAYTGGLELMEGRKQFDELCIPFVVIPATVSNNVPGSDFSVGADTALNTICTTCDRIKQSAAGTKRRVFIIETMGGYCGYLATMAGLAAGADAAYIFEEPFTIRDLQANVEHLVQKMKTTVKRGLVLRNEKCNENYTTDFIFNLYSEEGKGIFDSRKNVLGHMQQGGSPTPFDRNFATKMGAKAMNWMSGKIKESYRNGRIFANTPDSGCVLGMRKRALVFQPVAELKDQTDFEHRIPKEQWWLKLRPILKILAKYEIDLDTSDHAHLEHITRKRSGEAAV
Description: as §1, §2
as §3, with “Assays for PFKM were performed at pH 7.0 due to the pH-dependence of ATP inhibition ([Trivedi and Danforth, 1966]).” left out

[4] = biological target: T3, PFKL (K315R, V545L, and V582M), PFKL3Mut (Homo sapiens, UniProt P17858, K315R/V545L/V582M); experiment: Recombinant PFKL3Mut activity assay; assay type: biochemical; conditions: at 3.1 mM ATP; F6P approximately twice the Km,F6P
T3 construct: made in house; host or cells: Sf9 insect cells (baculovirus)
T3 sequence (P17858 1-780 K315R/V545L/V582M): T1 sequence (P17858 1-780) with K315R, V545L, V582M
Description: as §1, §2, §3

[5] = test system: PMNs; experiment: NADPH/NADP+ detection assay in neutrophils; assay type: cell-based, human; conditions: PMA 30 min, then apocynin
Procedure: The ratio of NADPH/NADP^+ (or NADH/NAD^+) was calculated after measuring the individual concentrations of NADPH and NADP^+ (or NADH and NAD^+) with NADP/NADPH-Glo (or NAD/NADH-Glo) assays (Promega). […] Cells were lysed in plates by addition of 1% dodecyltrimethylammonium bromide (DTAB). To measure NADPH, half of the samples was heated at 60 °C for 30 min. The other half was treated with HCl before heating to 60°C, to measure NADP^+. All samples were neutralized before adding luciferase detection reagent, then incubated for 1 h with gentle shaking. Luminescence was recorded on a plate reader (Envision).

[6] = test system: PFK1; experiment: PFK1 activity in PMN lysates; assay type: cell-based, human; conditions: neutrophils treated with PMA, LPS, or cholesterol crystals
Procedure: PFK1 activity assays from neutrophil lysates were modified from Abrantes et al., 2012. Briefly, neutrophils (10^7) were cultured with 0.5 μM NA-11 for 30 min, and then stimulated with 50 nM PMA, 5 μg/mL cholesterol crystals, 10 μg/mL LPS or 25 μM nigericin for 30 min. Cells were lysed in 10 mM PBS, 1% Triton X-100, and 1 x EDTA-free protease inhibitor cocktail on ice for 10 min. The soluble protein lysates were quantified by BCA assay (Pierce) and adjusted to 0.3125 mg/mL with lysis buffer. Lysate (80 μL) was mixed with 100 μL 2x enzyme cocktail solution (100 mM Tris-HCL pH7.4, 10 mM MgCl2, 0.5 mM ATP, 0.3 mM NADH, 1.35 units/mL Aldolase, 10 units/mL Triose phosphate isomerase, 4 units/mL glycerophosphate dehydrogenase, 20 mM ammonium sulfate) equilibrated to reach room temperature for 5 min. 20 μL of Fructose-6-phosphate (40 mM) was added and the reaction monitored for NADH decrease (absorbance at 340 nm) every 30 s for 30 min. Specific activity is in pmoles FBP per min per mg lysate.

Q: `CC#CCC(=O)Nc1ccc2c(c1)OCc1cc(-c3ccccc3OC)nn1C2` [NA-2] was tested. Which “inhibition of PMA-induced NETosis” value [1] did it give?
A: no inhibitor activity

Q: Which “inhibition of PMA-induced NETosis” value [1] does the source give for `COc1ccc(-c2cc3n(n2)Cc2ccc(NC(C)=O)cc2OC3)cc1` [NA-7] here?
A: slight increase in inhibitory activity

Q: For `Nc1ncnc2c1ncn2[C@@H]1O[C@H](COP(=O)(O)OP(=O)(O)OP(=O)(O)O)[C@@H](O)[C@H]1O` [ATP], which “ATP inhibition of wild-type PFKL” value [2] is on record?
A: > 80%

Q: What about the “inhibition of PFKM+pocket” value [3] of the same compound?
A: > 90%

Q: What about the “inhibition of mutant PFKL (PFKL3Mut)” value [4] of the same compound?
A: > 80%

Q: Which “NADPH replenishment / turnover after apocynin” value [5] does the source give for `NC(=O)c1ccc(N)nc1` [6-aminonicotinamide, reference compound] here?
A: effectively blocked NADPH turnover

Q: For “bisindolylmaleimide [reference compound]”, which “activation-induced reduction in PFK1 activity” value [6] is on record?
A: prevented the decrease in PFKL activity

Q: Which “inhibition of PMA-induced NETosis” value [1] does the source give for `CC(=O)Nc1ccc2c(c1)OCc1cc(Br)nn1C2` [NA-8] here?
A: inactive

Q: `CC(=O)Nc1ccc2c(c1)OCc1cc(-c3cccc(C#CCCCO)c3)nn1C2` [NA-10] was tested. Which “inhibition of PMA-induced NETosis” value [1] did it give?
A: largely tolerated

Q: `COc1cccc(-c2cc3n(n2)Cc2ccc(NC(C)=O)cc2OC3)c1` [NA-6] was tested. Which “inhibition of PMA-induced NETosis” value [1] did it give?
A: slight increase in inhibitory activity

Q: How did the “inhibition of PMA-induced NETosis” value [1] turn out when `CC#CCC(=O)Nc1cccc(-c2cc3n(n2)Cc2ccc(NC(C)=O)cc2OC3)c1` [NA-9] was run?
A: largely tolerated
